Measured values taken from patent publication US9365574B2, “Soluble guanylate cyclase activators” (Merck Sharp & Dohme Corp., priority 2010, dated 2016).

Tested on: Spontaneously hypertensive rats (SHR)
Assay: Acute Efficacy in Spontaneously Hypertensive Rats (SHR), telemetry blood pressure
Format: in vivo, rat
Excerpt: Acute Efficacy in Spontaneously Hypertensive Rats (SHR)
Spontaneously hypertensive rats (SHR, male, Charles River) were implanted with DSI TA11PA-C40 telemetry device (Data Sciences, Inc., St. Paul, Minn.) under isoflurane or ketamine/metomidine anesthesia. The telemetry unit catheter was inserted into the descending aorta via the femoral artery and the telemetry device was implanted subcutaneously in the left flank area. Animals were allowed to recover from surgery for 14 days before the start of any studies. Blood pressure, heart rate, and activity signals from conscious, freely moving rats were recorded continuously for 30 seconds every 10 minutes. On the day prior to administration of compound, a single oral dose of vehicle (10% transcutol/20% Cremophor/70% water) was administered to all animals to establish baseline control data. The blood pressure lowering efficacy of compound (PO) or vehicle was evaluated following a single oral gavage. Data were collected as hourly averages, and changes in blood pressure were calculated by subtracting control baseline data on an hourly basis. Animals were maintained on normal diet with a 12 hour light-dark cycle.
Maximum peak decreases of systolic blood pressure (SBP) in SHR at a particular P.O. dose (mpk milligrams per kilogram) for the following representative compounds are provided.

Row | SMILES | Maximum SBP reduction (dose 0.3 mpk) [mmHg] | Maximum peak decrease of systolic blood pressure (SBP) in SHR, Category (single oral dose 0.3 mpk P.O.) | other results
1 | CC1(C(N)=O)C(=O)Nc2nc(-c3nn(CCC(F)(F)C(F)(F)F)c4cc(Cl)ccc34)nc(N)c21 (single isomer, unassigned) [Example 159, 4-Amino-2-[6-Chloro-1-(3,3,4,4,4-Pentafluorobutyl)-1H-Indazol-3-yl]-5-Methyl-6-Oxo-6,7-Dihydro-5H-Pyrrolo[2,3-D]Pyrimidine-5-Carboxamide] | 38 ± 6 | B (Category B=SBP in SHRs 25-40 mmHg) | 
2 | CC1(C(=O)NC2CC2)C(=O)Nc2nc(-c3nn(CCC(F)(F)C(F)(F)F)c4cc(Cl)ccc34)nc(N)c21 (single isomer, unassigned) [Example 160, 4-Amino-2-[6-Chloro-1-(3,3,4,4,4-Pentafluorobutyl)-1H-Indazol-3-yl]-N-Cyclopropyl-5-Methyl-6-Oxo-6,7-Dihydro-5H-Pyrrolo[2,3-D]Pyrimidine-5-Carboxamide] | 77 ± 10 | C (Category C=SBP in SHRs>40 mmHg) | 
3 | CC1(c2ncccn2)C(=O)Nc2nc(-c3nn(CCC(F)(F)C(F)(F)F)c4ncccc34)nc(N)c21 (single isomer, unassigned) [Example 170, 4-Amino-5-Methyl-2-[1-(3,3,4,4,4-Pentafluorobutyl)-1H-Pyrazolo[3,4-B]Pyridin-3-yl]-5-Pyrimidin-2-yl-5,7-Dihydro-6H-Pyrrolo[2,3-D]Pyrimidin-6-One] |  |  | Maximum SBP reduction (dose 1.0 mpk): 65 ± 13 mmHg; Maximum peak decrease of systolic blood pressure (SBP) in SHR, Category (single oral dose 1 mpk P.O.): C (Category C=SBP in SHRs>40 mmHg)
4 | CC1(c2ccccc2)C(=O)Nc2nc(-c3nc(CCC(F)(F)C(F)(F)F)c4ccccn34)nc(N)c21 (single isomer, unassigned) [Example 190, 4-Amino-5-Methyl-2-[1-(3,3,4,4,4-Pentafluorobutyl)Imidazo[1,5-A]Pyridin-3-yl]-5-Phenyl-5,7-Dihydro-6H-Pyrrolo[2,3-D]Pyrimidin-6-One] |  | B (Category B=SBP in SHRs 25-40 mmHg) | 
5 | CC1(C(N)=O)C(=O)Nc2nc(-c3nn(CCC(F)(F)C(F)(F)F)c4ncccc34)nc(N)c21 (stereo not drawn) [Example 161, 4-Amino-5-Methyl-6-Oxo-2-[1-(3,3,4,4,4-Pentafluorobutyl)-1H-Pyrazolo[3,4-B]Pyridin-3-yl]-6,7-Dihydro-5H-Pyrrolo[2,3-D]Pyrimidine-5-Carboxamide] |  | B (Category B=SBP in SHRs 25-40 mmHg) | 
6 | NC(=O)C1(C2CC2)C(=O)Nc2nc(-c3nn(CCC(F)(F)C(F)(F)F)c4ncccc34)nc(N)c21 (stereo not drawn) [Example 162, 4-Amino-5-Cyclopropyl-6-Oxo-2-[1-(3,3,4,4,4-Pentafluorobutyl)-1H-Pyrazolo[3,4-B]Pyridin-3-yl]-6,7-Dihydro-5H-Pyrrolo[2,3-D]Pyrimidine-5-Carboxamide] | 26 ± 7 | B (Category B=SBP in SHRs 25-40 mmHg) | 
7 | N#CC1(C2CC2)C(=O)Nc2nc(-c3nn(CCC(F)(F)C(F)(F)F)c4ncccc34)nc(N)c21 (stereo not drawn) [Example 163, 4-Amino-5-Cyclopropyl-6-Oxo-2-[1-(3,3,4,4,4-Pentafluorobutyl)-1H-Pyrazolo[3,4-B]Pyridin-3-yl]-6,7-Dihydro-5H-Pyrrolo[2,3-D]Pyrimidine-5-Carbonitrile] |  | C (Category C=SBP in SHRs>40 mmHg) | 
8 | CC1(C(=O)NC2CC2)C(=O)Nc2nc(-c3nn(CCC(F)(F)C(F)(F)F)c4ncccc34)nc(N)c21 (stereo not drawn) [Example 164, 4-Amino-N-Cyclopropyl-5-Methyl-6-Oxo-2-[1-(3,3,4,4,4-Pentafluorobutyl)-1H-Pyrazolo[3,4-B]Pyridin-3-yl]-6,7-Dihydro-5H-Pyrrolo[2,3-D]Pyrimidine-5-Carboxamide] |  | C (Category C=SBP in SHRs>40 mmHg) | 
9 | CC1(C(=O)Nc2ccccc2)C(=O)Nc2nc(-c3nn(CCC(F)(F)C(F)(F)F)c4cc(Cl)ccc34)nc(N)c21 (stereo not drawn) [Example 165, 4-Amino-2-[6-Chloro-1-(3,3,4,4,4-Pentafluorobutyl)-1H-Indazol-3-yl]-5-Methyl-6-Oxo-N-Phenyl-6,7-Dihydro-5H-Pyrrolo[2,3-D]Pyrimidine-5-Carboxamide] |  | B (Category B=SBP in SHRs 25-40 mmHg) | 
10 | CCOC(=O)NC1(C)C(=O)Nc2nc(-c3nn(CCC(F)(F)C(F)(F)F)c4cc(Cl)ccc34)nc(N)c21 (stereo not drawn) [Example 166, Ethyl (4-Amino-2-(6-Chloro-1-(3,3,4,4,4-Pentafluorobutyl)-1H-Indazol-3-yl)-5-Methyl-6-Oxo-6,7-Dihydro-5H-Pyrrolo[2,3-D]Pyrimidin-5-yl)Carbamate] |  | A (Category A=SBP in SHRs<25 mmHg) | 
11 | Cc1nc(C2(C)C(=O)Nc3nc(-c4nn(CCC(F)(F)C(F)(F)F)c5cc(Cl)ccc45)nc(N)c32)sc1C (stereo not drawn) [Example 167, 4-Amino-2-[6-Chloro-1-(3,3,4,4,4-Pentafluorobutyl)-1H-Indazol-3-yl]-5-(4,5-Dimethyl-1,3-Thiazol-2-yl)-5-Methyl-5,7-Dihydro-6H-Pyrrolo[2,3-D]Pyrimidin-6-One] |  | B (Category B=SBP in SHRs 25-40 mmHg) | 
12 | CC1(c2nncs2)C(=O)Nc2nc(-c3nn(CCC(F)(F)C(F)(F)F)c4ncccc34)nc(N)c21 (stereo not drawn) [Example 168, 4-Amino-5-Methyl-2-[1-(3,3,4,4,4-Pentafluorobutyl)-1H-Pyrazolo[3,4-B]Pyridin-3-yl]-5-(1,3,4-Thiadiazol-2-yl)-5,7-Dihydro-6H-Pyrrolo[2,3-D]Pyrimidin-6-One] | 19 ± 9 | A (Category A=SBP in SHRs<25 mmHg) | 
13 | Cc1nnc(C2(C)C(=O)Nc3nc(-c4nn(CCC(F)(F)C(F)(F)F)c5ncccc45)nc(N)c32)o1 (stereo not drawn) [Example 169, 4-Amino-5-Methyl-5-(5-Methyl-1,3,4-Oxadiazol-2-yl)-2-[1-(3,3,4,4,4-Pentafluorobutyl)-1H-Pyrazolo[3,4-B]Pyridin-3-yl]-5,7-Dihydro-6H-Pyrrolo[2,3-D]Pyrimidin-6-One] | 52 ± 5 | C (Category C=SBP in SHRs>40 mmHg) | 
14 | CC(C)n1nc(C2(C)C(=O)Nc3nc(-c4nn(CCC(F)(F)C(F)(F)F)c5cc(Cl)ccc45)nc(N)c32)oc1=O (stereo not drawn) [Example 171, 4-Amino-2-[6-Chloro-1-(3,3,4,4,4-Pentafluorobutyl)-1H-Indazol-3-yl]-5-Methyl-5-[5-Oxo-4-(Propan-2-yl)-4,5-Dihydro-1,3,4-Oxadiazol-2-yl]-5,7-Dihydro-6H-Pyrrolo[2,3-D]Pyrimidin-6-One] |  | C (Category C=SBP in SHRs>40 mmHg) | 
15 | CC(C)n1nc(C2(C)C(=O)Nc3nc(-c4nn(CCC(F)(F)C(F)(F)F)c5cc(Cl)ccc45)nc(N)c32)oc1=S (stereo not drawn) [Example 172, 4-Amino-2-[6-Chloro-1-(3,3,4,4,4-Pentafluorobutyl)-1H-Indazol-3-yl]-5-Methyl-5-[4-(Propan-2-yl)-5-Thioxo-4,5-Dihydro-1,3,4-Oxadiazol-2-yl]-5,7-Dihydro-6H-Pyrrolo[2,3-D]Pyrimidin-6-One] |  | A (Category A=SBP in SHRs<25 mmHg) | 
16 | CCn1cc(C2(C)C(=O)Nc3nc(-c4nn(CCC(F)(F)C(F)(F)F)c5ncccc45)nc(N)c32)nn1 (stereo not drawn) [Example 173, 4-Amino-5-(1-Ethyl-1H-1,2,3-Triazol-4-yl)-5-Methyl-2-[1-(3,3,4,4,4-Pentafluorobutyl)-1H-Pyrazolo[3,4-B]Pyridin-3-yl]-5,7-Dihydro-6H-Pyrrolo[2,3-D]Pyrimidin-6-One] | 66 ± 6 | C (Category C=SBP in SHRs>40 mmHg) | 
17 | CC1(NCC2CC2)C(=O)Nc2nc(-c3nn(CCC(F)(F)C(F)(F)F)c4ncccc34)nc(N)c21 (stereo not drawn) [Example 174, 4-Amino-5-[(Cyclopropylmethyl)Amino]-5-Methyl-2-[1-(3,3,4,4,4-Pentafluorobutyl)-1H-Pyrazolo[3,4-B]Pyridin-3-yl]-5,7-Dihydro-6H-Pyrrolo[2,3-D]Pyrimidin-6-One] |  | B (Category B=SBP in SHRs 25-40 mmHg) | 
18 | CC1(CC#N)C(=O)Nc2nc(-c3nn(CCC(F)(F)C(F)(F)F)c4cc(Cl)ccc34)nc(N)c21 (stereo not drawn) [Example 175, {4-Amino-2-[6-Chloro-1-(3,3,4,4,4-Pentafluorobutyl)-1H-Indazol-3-yl]-5-Methyl-6-Oxo-6,7-Dihydro-5H-Pyrrolo[2,3-D]Pyrimidin-5-yl}Acetonitrile] |  | B (Category B=SBP in SHRs 25-40 mmHg) | 
19 | CC1(C(=O)NC2CC2)C(=O)Nc2nc(-c3nn(CCC(F)(F)C(F)(F)F)c4nc(Cl)ccc34)nc(N)c21 (stereo not drawn) [Example 176, 4-Amino-2-(6-Chloro-1-(3,3,4,4,4-Pentafluorobutyl)-1H-Pyrazolo[3,4-B]Pyridin-3-yl)-N-Cyclopropyl-5-Methyl-6-Oxo-6,7-Dihydro-5H-Pyrrolo[2,3-D]Pyrimidine-5-Carboxamide] |  |  | Maximum peak decrease of systolic blood pressure (SBP) in SHR, Category (single oral dose 0.1 mpk P.O.): C (Category C=SBP in SHRs>40 mmHg)
20 | COc1ccc2c(-c3nc(N)c4c(n3)NC(=O)C4(C)C(=O)NC3CC3)nn(CCC(F)(F)C(F)(F)F)c2n1 (stereo not drawn) [Example 178, 4-Amino-N-Cyclopropyl-2-(6-Methoxy-1-(3,3,4,4,4-Pentafluorobutyl)-1H-Pyrazolo[3,4-B]Pyridin-3-yl)-5-Methyl-6-Oxo-6,7-Dihydro-5H-Pyrrolo[2,3-D]Pyrimidine-5-Carboxamide] |  |  | Maximum peak decrease of systolic blood pressure (SBP) in SHR, Category (single oral dose 0.1 mpk P.O.): A (Category A=SBP in SHRs<25 mmHg)
